Test results published in ChEMBL document CHEMBL1126359, “Synthesis and pharmacological activity of rationally designed inhibitors of the leukotriene A4 hydrolase enzyme” (Bioorg Med Chem Lett, 1992).

Tests used:
HL-60 = test: Inhibitory activity against calcium ionophore induced Leukotriene B4 biosynthesis by the promyelocytic leukemia cell line HL-60 at concentrations of 10e-6 M; A - good inhibitory activity; assay type: functional, cell-based; settings: Homo sapiens
[1] = target: T1, Leukotriene A-4 hydrolase (Homo sapiens) (UniProt P09960); test: Inhibition of Leukotriene B4 by inhibiting the conversion of Leukotriene A4 by a purified Leukotriene A4 hydrolase; IE - ineffective
T1 sequence (whole entry): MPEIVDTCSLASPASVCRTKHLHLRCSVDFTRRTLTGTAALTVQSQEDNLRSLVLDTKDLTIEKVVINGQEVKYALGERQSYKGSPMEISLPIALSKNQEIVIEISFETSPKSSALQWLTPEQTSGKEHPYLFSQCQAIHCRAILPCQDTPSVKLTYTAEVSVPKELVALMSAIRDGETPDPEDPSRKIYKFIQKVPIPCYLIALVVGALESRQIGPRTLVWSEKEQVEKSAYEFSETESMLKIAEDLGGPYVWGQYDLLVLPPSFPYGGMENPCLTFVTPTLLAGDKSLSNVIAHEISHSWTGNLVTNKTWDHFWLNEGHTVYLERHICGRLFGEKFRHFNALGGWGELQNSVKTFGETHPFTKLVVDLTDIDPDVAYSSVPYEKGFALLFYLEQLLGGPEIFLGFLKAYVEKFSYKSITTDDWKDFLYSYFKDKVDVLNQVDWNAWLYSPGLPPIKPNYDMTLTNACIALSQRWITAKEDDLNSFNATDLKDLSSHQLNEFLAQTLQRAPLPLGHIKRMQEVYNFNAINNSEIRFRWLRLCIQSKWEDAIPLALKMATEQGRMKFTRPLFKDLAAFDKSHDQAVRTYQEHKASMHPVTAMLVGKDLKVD

Row | Activity [1] | SMILES | Activity (HL-60)
1 | Ineffective | CCCCCCCC/C=C\C=C\C1=C[C@@H]2CC[C@@]1(CCCC(=O)O)O2 | A
2 | Ineffective | CCCCCCCCCC/C=C/C1=C[C@@H]2CC[C@@]1(CCCC(=O)O)O2 | A
